Source: ChEMBL document CHEMBL4610123, “Structure-Based Drug Discovery of N-((R)-3-(7-Methyl-1H-indazol-5-yl)-1-oxo-1-(((S)-1-oxo-3-(piperidin-4-yl)-1-(4-(pyridin-4-yl)piperazin-1-yl)propan-2-yl)amino)propan-2-yl)-2'-oxo-1',2'-dihydrospiro[piperidine-4,4'-pyrido[2,3-d][1,3]oxazine]-1-carboxamide (HTL22562): A Calcitonin Gene-Related …” (J Med Chem, 2020)

Experiments:
Cytochrome P450 2C8 = biological target: T1, Cytochrome P450 2C8 (Homo sapiens, UniProt P10632); test: Inhibition of CYP2C8 (unknown origin); assay type: ADME
T1 sequence (P10632 whole entry): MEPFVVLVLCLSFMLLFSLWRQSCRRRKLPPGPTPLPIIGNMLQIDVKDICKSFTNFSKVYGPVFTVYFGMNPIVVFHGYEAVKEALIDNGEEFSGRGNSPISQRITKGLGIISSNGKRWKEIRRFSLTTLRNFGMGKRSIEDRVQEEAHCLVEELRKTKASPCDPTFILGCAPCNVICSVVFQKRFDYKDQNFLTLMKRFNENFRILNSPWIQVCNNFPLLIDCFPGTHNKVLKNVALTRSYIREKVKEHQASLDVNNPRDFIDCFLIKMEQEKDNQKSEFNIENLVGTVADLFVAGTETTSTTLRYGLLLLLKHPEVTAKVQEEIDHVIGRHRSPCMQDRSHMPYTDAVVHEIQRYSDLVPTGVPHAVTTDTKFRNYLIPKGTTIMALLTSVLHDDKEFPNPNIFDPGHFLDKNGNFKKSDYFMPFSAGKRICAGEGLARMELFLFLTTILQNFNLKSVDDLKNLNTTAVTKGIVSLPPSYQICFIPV

[1] = Tmax in cynomolgus monkey at 0.5 mg/kg, sc; assay type: ADME, organism-based, Macaca fascicularis; settings: in vivo

For Cc1cc(C[C@@H](NC(=O)N2CCC3(CC2)OC(=O)Nc2ncccc23)C(=O)N[C@@H](CC2CCNCC2)C(=O)N2CCN(c3ccncc3)CC2)cc2cn[nH]c12 [HTL-0022562], the IC50 (Cytochrome P450 2C8) was > 50.1 µM and the Tmax [1] was 48 min.
